In the assay the target is T1, recombinant human BACE-1 (rhBACE-1) (Homo sapiens, UniProt P56817).
T1 construct: expressed as only an extracellular region (amino acid 1-460 residues) of recombinant human β-secretase; His tag (C); purchased R&D systems (Minneapolis, Minn.); host or cells: murine myeloma cell line NS0
T1 sequence (P56817 46-460 limits assumed): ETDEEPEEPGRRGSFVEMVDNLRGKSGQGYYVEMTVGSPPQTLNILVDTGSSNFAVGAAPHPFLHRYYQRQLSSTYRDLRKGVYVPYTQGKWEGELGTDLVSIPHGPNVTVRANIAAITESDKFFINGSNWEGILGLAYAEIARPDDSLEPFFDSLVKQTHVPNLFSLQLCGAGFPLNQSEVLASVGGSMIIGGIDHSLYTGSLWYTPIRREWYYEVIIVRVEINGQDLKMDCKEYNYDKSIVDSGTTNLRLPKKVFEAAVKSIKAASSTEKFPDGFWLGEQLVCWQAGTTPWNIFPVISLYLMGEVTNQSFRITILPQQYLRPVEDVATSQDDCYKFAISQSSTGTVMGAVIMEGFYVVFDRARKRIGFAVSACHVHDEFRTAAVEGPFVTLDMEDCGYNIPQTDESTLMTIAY
Kind of assay: BACE1 inhibitory activity, rhBACE-1 with fluorogenic peptide substrate, reverse phase HPLC. The format is biochemical. Conditions: inhibitor 2 μM; MES buffer pH 5.0, 37° C., 60 minutes; read-out: Inhibitory rate (%) (2 μM). The source says: Experiment Regarding Measurement of BACE1 Inhibitory Activity Enzyme Used in Measurement As an enzyme having β-secretase activity, recombinant human BACE-1 (rhBACE-1) purchased from R&D systems (Minneapolis, Minn.) was used. rhBACE-1 is expressed as only an extracellular region ([…] residues) of recombinant human β-secretase, with a His tag at its carboxyl terminus in murine myeloma cell line, NS0. Purified secreted rhBACE1 is a mixture of a pro entity (about 75 kDa) and a mature entity (about 72 kDa). […] Assessment of Enzyme Inhibitory Activity […] After incubation at 37° C. for 60 minutes, 20 μL of 20% trichloroacetic acid was added to stop the reaction. And, inhibition % was calculated by measuring a fluorescent intensity of the N-terminal fragment (Ex, 328 nm; […]
On to `C[C@@H](NC(=O)c1cc(=O)cc(C(=O)N[C@@H](Cc2ccccc2)[C@H](O)C(=O)Nc2cccc(-c3nn[nH]n3)c2)o1)c1ccccc1` [Example 1], for which the inhibition at 2 µM is 70.1%.

Take `O=C(N[C@@H](Cc1ccccc1)[C@H](O)C(=O)Nc1cccc(-c2nn[nH]n2)c1)c1cc(=O)cc(C(=O)N(Cc2ccccc2)Cc2ccccc2)o1` [Example 2]: the inhibition at 2 µM came out at 28.8%.

Take `C[C@@H](NC(=O)c1cc(=O)cc(C(=O)N[C@@H](Cc2ccccc2)[C@H](O)C(=O)Nc2cccc(-c3nn[nH]n3)c2)o1)c1ccc([N+](=O)[O-])cc1` [Example 3]: the inhibition at 2 µM is 26.8%.

As to `COc1ccc([C@@H](C)NC(=O)c2cc(=O)cc(C(=O)N[C@@H](Cc3ccccc3)[C@H](O)C(=O)Nc3cccc(-c4nn[nH]n4)c3)o2)cc1` [Example 5], the inhibition at 2 µM was determined as 70.4%.

For the molecule `CN(Cc1ccccc1)C(=O)c1cc(=O)cc(C(=O)N[C@@H](Cc2ccccc2)[C@H](O)C(=O)Nc2cccc(-c3nn[nH]n3)c2)o1` [Example 6], the inhibition at 2 µM stood at 66.9%.

As for `C[C@@H](NC(=O)c1cc(=O)cc(C(=O)NC(Cc2ccccc2)[C@H](O)C(=O)Nc2cccc(-c3nn[nH]n3)c2)[nH]1)c1ccccc1` (stereo partly shown) [Example 7], the inhibition at 2 µM worked out at 50.8%.

Take `CC(C)(NC(=O)c1cc(=O)cc(C(=O)NC(Cc2ccccc2)[C@H](O)C(=O)Nc2cccc(-c3nn[nH]n3)c2)[nH]1)c1ccccc1` (stereo partly shown) [Example 8]: the inhibition at 2 µM stood at 65.1%.

Consider `C[C@@H](NC(=O)c1cccc(C(=O)NC(Cc2ccccc2)[C@H](O)C(=O)Nc2cccc(-c3nn[nH]n3)c2)n1)c1ccccc1` (stereo partly shown) [Example 9], for which the inhibition at 2 µM was 65.6%.

For `CC(C)(NC(=O)c1cccc(C(=O)NC(Cc2ccccc2)[C@H](O)C(=O)Nc2cccc(-c3nn[nH]n3)c2)n1)c1ccccc1` (stereo partly shown) [Example 10], the inhibition at 2 µM was determined as 69.1%.

In the case of `O=C(NC(Cc1ccccc1)[C@H](O)C(=O)Nc1cccc(-c2nn[nH]n2)c1)c1cc(=O)cc(C(=O)N2COCC2c2ccccc2)o1` (stereo partly shown) [Example 13], the inhibition at 2 µM was 95.6%.

Take `O=C(NC(Cc1ccccc1)[C@H](O)C(=O)Nc1cccc(-c2nn[nH]n2)c1)c1cc(=O)cc(C(=O)N2COCC2c2ccccc2)[nH]1` (stereo partly shown) [Example 14]: the inhibition at 2 µM was 82.7%.

In the case of `O=C(NC(Cc1ccccc1)[C@H](O)C(=O)Nc1cccc(-c2nn[nH]n2)c1)c1cccc(C(=O)N2COCC2c2ccccc2)n1` (stereo partly shown) [Example 15], the inhibition at 2 µM amounted to 92.6%.

For the molecule `CS(=O)(=O)Oc1cc(C(=O)NC(Cc2ccccc2)[C@H](O)C(=O)Nc2cccc(-c3nn[nH]n3)c2)nc(C(=O)N2COCC2c2ccccc2)c1` (stereo partly shown) [Example 16], the inhibition at 2 µM was found to be 95.6%.

For `CC(C)(NC(=O)c1cccc(C(=O)NC(Cc2ccccc2)[C@H](O)C(=O)NS(=O)(=O)C(F)(F)F)n1)c1ccccc1` (stereo partly shown) [Example 17], the inhibition at 2 µM is 37.4%.

`CC(C)(NC(=O)c1cc(=O)cc(C(=O)N[C@@H](Cc2ccccc2)[C@H](O)C(=O)Nc2cccc(-c3nn[nH]n3)c2)o1)c1ccccc1` [Example 21]: the inhibition at 2 µM came to 80.8%.

`C[C@@H](NC(=O)c1cc(=O)cc(C(=O)N[C@@H](Cc2ccccc2)[C@H](O)C(=O)Nc2cccc(-c3nn[nH]n3)c2)o1)c1ccc(F)cc1` [Example 22]: the inhibition at 2 µM was 75.8%.

Source of the values: patent US8344002B2, “Compound having β-secretase inhibitory activity” (priority 2007, dated 2013).
